This passage reports IC50 results from patent US12018016B2, “Aryl sulfonyl (hydroxy) piperidines as CCR6 inhibitors” (CHEMOCENTRYX, INC., priority 2021, dated 2024).

pIC50: −log10 of the molar value.

In the assay the target is T1, human CCR6 (Homo sapiens, UniProt P51684).
T1 construct: expressed in transfected cells; host or cells: Ba/F3 cells (mouse pro-B line)
T1 sequence (P51684 1-374): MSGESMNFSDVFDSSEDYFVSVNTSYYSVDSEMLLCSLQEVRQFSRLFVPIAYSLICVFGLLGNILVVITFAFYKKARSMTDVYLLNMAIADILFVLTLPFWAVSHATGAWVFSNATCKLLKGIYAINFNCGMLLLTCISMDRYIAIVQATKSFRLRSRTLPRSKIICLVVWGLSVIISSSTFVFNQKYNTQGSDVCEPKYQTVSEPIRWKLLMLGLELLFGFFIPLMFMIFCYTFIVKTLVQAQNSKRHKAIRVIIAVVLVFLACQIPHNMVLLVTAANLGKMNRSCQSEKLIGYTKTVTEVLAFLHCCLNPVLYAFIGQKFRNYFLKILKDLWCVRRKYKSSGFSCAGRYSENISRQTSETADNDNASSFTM
Description: Migration assay (chemotaxis, ChemoTX). The assay is classed as cell-based. The settings on record: hCCR6-transfected Ba/F3 cells in human serum, migration to recombinant human CCL20 10 nM, 37° C. 45 minutes; read-out: Potency (IC50 value in the migration assay). The source says: A chemotaxis assay can be used to determine the efficacy of potential receptor antagonists at blocking the migration mediated through chemokine receptors, such as CCR6. This assay is routinely performed using the ChemoTX® microchamber system with a 5-μm pore-sized polycarbonate membrane. Chemokine receptor-expressing cells are required for such an assay. In this case, Ba/F3 cells (Palacios et al., Nature, 309:126, 1984) transfected with the gene for human CCR6 under control of the CMV promotor were used. To begin such an assay, hCCR6-transfected Ba/F3 cells are first grown for 24 hr in medium supplemented with sodium butyrate, which increases CCR6 transcription via the CMV promotor. The prepared Ba/F3 cells, are collected by centrifugation at 400×g at room temperature, then suspended at 4 million/ml in human serum. The compound being tested is serially diluted from a maximum final concentration of 1 μM (or an equivalent volume of its solvent (DMSO)) and is then added to the cell/serum mixture. Separately, recombinant human CCL20 (MIP-3α/LARC) at its EC50 concentration (10 nM) is placed in the lower wells of the ChemoTX® plate. The 5-μm (pore size) polycarbonate membrane is placed onto the plate, and 20 μL of the cell/compound mixture is transferred onto each well of the membrane. The plates are incubated at 37° C. for 45 minutes, after which the polycarbonate membranes are removed and 5 μl of the DNA-intercalating dye CyQUANT (Invitrogen, Carlsbad, CA) is added to the lower wells. The amount of fluorescence, corresponding to the number of migrated cells, is measured using a Spectrafluor Plus plate reader (TECAN, San Jose, CA).
For the compound `NC(=O)c1cc(-c2ccc(S(=O)(=O)N3CC[C@@H](Nc4ncc(C(F)(F)F)cn4)[C@@H](O)C3)cc2)ccn1` [Compound 86, 4-(4-(((3S,4R)-3-hydroxy-4-((5-(trifluoromethyl)pyrimidin-2-yl)amino)piperidin-1-yl)sulfonyl)phenyl)picolinamide], the pIC50 was 6.00 to 8.00.
With `NC(=O)c1cc(-c2ccc(S(=O)(=O)N3CC[C@@H](Nc4ccc(Cl)cn4)[C@@H](O)C3)cc2)ccn1` [Compound 87], the pIC50 was over 9.00.
Under `O=C1CNCCN1c1cc(-c2ccc(S(=O)(=O)N3CC[C@@H](Nc4ccc(C(F)(F)F)cn4)[C@@H](O)C3)cc2)ccn1` [Compound 88, 1-(4-(4-(((3S,4R)-3-hydroxy-4-((5-(trifluoromethyl)pyridin-2-yl)amino)piperidin-1-yl)sulfonyl)phenyl)pyridin-2-yl)piperazin-2-one] stands 8.00 to 9.00; under `O=S(=O)(c1ccc(-c2ccc(N3CCOCC3)nc2)cc1)N1CC[C@@H](Nc2ccc(C(F)(F)F)cn2)[C@@H](O)C1` [Compound 89, (3S,4R)-1-((4-(6-morpholinopyridin-3-yl)phenyl)sulfonyl)-4-((5-(trifluoromethyl)pyridin-2-yl)amino)piperidin-3-ol], over 9.00; under `O=S(=O)(c1ccc(-c2ccnc(N3CCCC3)c2)cc1)N1CC[C@@H](Nc2ccc(C(F)(F)F)cn2)[C@@H](O)C1` [Compound 90, (3S,4R)-1-((4-(2-(pyrrolidin-1-yl)pyridin-4-yl)phenyl)sulfonyl)-4-((5-(trifluoromethyl)pyridin-2-yl)amino)piperidin-3-ol], over 9.00.
`CN(C)[C@H]1C[C@H](Nc2ccc(-c3ccc(S(=O)(=O)N4CC[C@@H](Nc5ccc(C(F)(F)F)cn5)[C@@H](O)C4)cc3)cn2)C1` [Compound 91]: the pIC50 is 8.00 to 9.00.
Then `CC(C)(O)C1CN(c2ccc(-c3ccc(S(=O)(=O)N4CC[C@@H](Nc5ccc(C(F)(F)F)cn5)[C@@H](O)C4)cc3)cn2)C1` [Compound 92], with over 9.00; and `O=S(=O)(c1ccc(-c2ccc(N3CC4(COC4)C3)nc2)cc1)N1CC[C@@H](Nc2ccc(C(F)(F)F)cn2)[C@@H](O)C1` [Compound 93], with over 9.00; and `N[C@H]1C[C@H](Nc2ccc(-c3ccc(S(=O)(=O)N4CC[C@@H](Nc5ccc(C(F)(F)F)cn5)[C@@H](O)C4)cc3)cn2)C1` [Compound 94], with over 9.00.
Under `COC1CN(c2ccc(-c3ccc(S(=O)(=O)N4CC[C@@H](Nc5ccc(C(F)(F)F)cn5)[C@@H](O)C4)cc3)cn2)C1` [Compound 95] stands 8.00 to 9.00.
With `CN(C)[C@H]1C[C@@H](Nc2ccc(-c3ccc(S(=O)(=O)N4CC[C@@H](Nc5ccc(C(F)(F)F)cn5)[C@@H](O)C4)cc3)cn2)C1` [Compound 96], the pIC50 was over 9.00.
As for `N[C@H]1C[C@@H](Nc2ccc(-c3ccc(S(=O)(=O)N4CC[C@@H](Nc5ccc(C(F)(F)F)cn5)[C@@H](O)C4)cc3)cn2)C1` [Compound 97], the pIC50 was over 9.00.
On to `CN1CC(N(C)c2ccc(-c3ccc(S(=O)(=O)N4CC[C@@H](Nc5ccc(C(F)(F)F)cn5)[C@@H](O)C4)cc3)cn2)C1` [Compound 98], for which the pIC50 is 8.00 to 9.00.
Then `CN1CC2(C1)CN(c1ccc(-c3ccc(S(=O)(=O)N4CC[C@@H](Nc5ccc(C(F)(F)F)cn5)[C@@H](O)C4)cc3)cn1)C2` [Compound 99], with over 9.00; and `O=S(=O)(c1ccc(-c2ccc(N3CCC3)nc2)cc1)N1CC[C@@H](Nc2ccc(C(F)(F)F)cn2)[C@@H](O)C1` [Compound 100], with over 9.00.
Then `CN(C)CCN(C)c1ccc(-c2ccc(S(=O)(=O)N3CC[C@@H](Nc4ccc(C(F)(F)F)cn4)[C@@H](O)C3)cc2)cn1` [Compound 101], with 6.00 to 8.00.
On to `CN(c1ccc(-c2ccc(S(=O)(=O)N3CC[C@@H](Nc4ccc(C(F)(F)F)cn4)[C@@H](O)C3)cc2)cn1)C1CCC1` [Compound 102], for which the pIC50 is 8.00 to 9.00.
For `O=S(=O)(c1ccc(-c2ccc(NC3CCC3)nc2)cc1)N1CC[C@@H](Nc2ccc(C(F)(F)F)cn2)[C@@H](O)C1` [Compound 103], the pIC50 is 8.00 to 9.00.
Then `O=S(=O)(c1ccc(-c2ccc(N3CC4(CNC4)C3)nc2)cc1)N1CC[C@@H](Nc2ccc(C(F)(F)F)cn2)[C@@H](O)C1` [Compound 104], with over 9.00.
For the compound `CN(C)C1CCN(c2ccc(-c3ccc(S(=O)(=O)N4CC[C@@H](Nc5ccc(C(F)(F)F)cn5)[C@@H](O)C4)cc3)cn2)CC1` [Compound 105], the pIC50 was 8.00 to 9.00.
In the case of `NC1CCN(c2ccc(-c3ccc(S(=O)(=O)N4CC[C@@H](Nc5ccc(C(F)(F)F)cn5)[C@@H](O)C4)cc3)cn2)CC1` [Compound 106], the pIC50 was over 9.00.
Under `CN(C)C1CN(c2ccc(-c3ccc(S(=O)(=O)N4CC[C@@H](Nc5ccc(C(F)(F)F)cn5)[C@@H](O)C4)cc3)cn2)C1` [Compound 107] stands 8.00 to 9.00; under `CN1CCN(c2cncc(-c3ccc(S(=O)(=O)N4CC[C@@H](Nc5ccc(C(F)(F)F)cn5)[C@@H](O)C4)cc3)c2)CC1` [Compound 108], over 9.00.
Under `O=S(=O)(c1ccc(-c2ccc(N3CCCCC3)nc2)cc1)N1CC[C@@H](Nc2ccc(C(F)(F)F)cn2)[C@@H](O)C1` [Compound 109] stands 8.00 to 9.00; under `Nc1cncc(-c2ccc(S(=O)(=O)N3CC[C@@H](Nc4ccc(C(F)(F)F)cn4)[C@@H](O)C3)cc2)c1` [Compound 110], over 9.00.
`CN(C)c1cncc(-c2ccc(S(=O)(=O)N3CC[C@@H](Nc4ccc(C(F)(F)F)cn4)[C@@H](O)C3)cc2)c1` [Compound 111]: the pIC50 is over 9.00.
Then `CN(C)c1ccc(-c2ccc(S(=O)(=O)N3CC[C@@H](Nc4ccc(C(F)(F)F)cn4)[C@@H](O)C3)cc2)cn1` [Compound 112], with over 9.00.
Under `CN1CCN(c2cc(-c3ccc(S(=O)(=O)N4CC[C@@H](Nc5ccc(C(F)(F)F)cn5)[C@@H](O)C4)cc3)ccn2)CC1` [Compound 113] stands 6.00 to 8.00; under `O=S(=O)(c1ccc(-c2ccc(N3CCNCC3)nc2)cc1)N1CC[C@@H](Nc2ccc(C(F)(F)F)cn2)[C@@H](O)C1` [Compound 114], 8.00 to 9.00; under `CN1CCN(c2ccc(-c3ccc(S(=O)(=O)N4CC[C@@H](Nc5ccc(C(F)(F)F)cn5)[C@@H](O)C4)cc3)cn2)CC1` [Compound 115], over 9.00.
Under `Cc1ccnc(C)c1-c1ccc(S(=O)(=O)N2CC[C@@H](Nc3ccc(C(F)(F)F)cn3)[C@@H](O)C2)cc1` [Compound 116] stands over 9.00.
For the compound `NC(=O)c1cccc(-c2ccc(S(=O)(=O)N3CC[C@@H](Nc4ccc(C(F)(F)F)cn4)[C@@H](O)C3)cc2)c1` [Compound 117], the pIC50 is over 9.00.
Under `COc1c(-c2ccc(S(=O)(=O)N3CC[C@@H](Nc4ccc(C(F)(F)F)cn4)[C@@H](O)C3)cc2)cnc2[nH]cc(C#N)c12` [Compound 118] stands over 9.00.
Under `O=S(=O)(c1ccc(-c2cnc3[nH]ccc3c2F)cc1)N1CC[C@@H](Nc2ccc(C(F)(F)F)cn2)[C@@H](O)C1` [Compound 119] stands over 9.00; under `O=S(=O)(c1ccc(-c2cc(F)c3[nH]ncc3c2)cc1)N1CC[C@@H](Nc2ccc(C(F)(F)F)cn2)[C@@H](O)C1` [Compound 120], over 9.00.
Under `Cc1cc(-c2ccc(S(=O)(=O)N3CC[C@@H](Nc4ccc(C(F)(F)F)cn4)[C@@H](O)C3)cc2)cc2c(C#N)nn(C)c12` [Compound 121] stands over 9.00.
As for `COc1cc(-c2ccc(S(=O)(=O)N3CC[C@@H](Nc4ccc(C(F)(F)F)cn4)[C@@H](O)C3)cc2)cc2c(C#N)n[nH]c12` [Compound 122], the pIC50 was over 9.00.
As for `Cc1cc(-c2ccc(S(=O)(=O)N3CC[C@@H](Nc4ccc(C(F)(F)F)cn4)[C@@H](O)C3)cc2)cc2cnn(C)c12` [Compound 123], the pIC50 is over 9.00.
As for `CN(C)c1cc(-c2ccc(S(=O)(=O)N3CC[C@@H](Nc4ccc(C(F)(F)F)cn4)[C@@H](O)C3)cc2)ccn1` [Compound 124], the pIC50 was 8.00 to 9.00.
Then `CNc1cc(-c2ccc(S(=O)(=O)N3CC[C@@H](Nc4ccc(C(F)(F)F)cn4)[C@@H](O)C3)cc2)ccn1` [Compound 125], with 8.00 to 9.00.
Take `Nc1cc(-c2ccc(S(=O)(=O)N3CC[C@@H](Nc4ccc(C(F)(F)F)cn4)[C@@H](O)C3)cc2)ccn1` [Compound 126]: the pIC50 was 8.00 to 9.00.
Then `O=C1C[C@H](Nc2cc(-c3ccc(S(=O)(=O)N4CC[C@@H](Nc5ccc(C(F)(F)F)cn5)[C@@H](O)C4)cc3)ccn2)CN1` [Compound 127], with 8.00 to 9.00.
